Here are results for eleven compounds from BindingDB's records for doi:10.1016/0014-2999(79)90202-4 (1979).

As usually defined, the Ki is a measure of affinity in units of concentration, obtained from inhibition or displacement. The low end stands for a stronger hold on the target, the high end for a looser hold on the target.

This assay deals with 5-hydroxytryptamine receptor 7 (Rattus norvegicus, UniProt P32305).
Chain of 5-hydroxytryptamine receptor 7 (P32305 whole entry): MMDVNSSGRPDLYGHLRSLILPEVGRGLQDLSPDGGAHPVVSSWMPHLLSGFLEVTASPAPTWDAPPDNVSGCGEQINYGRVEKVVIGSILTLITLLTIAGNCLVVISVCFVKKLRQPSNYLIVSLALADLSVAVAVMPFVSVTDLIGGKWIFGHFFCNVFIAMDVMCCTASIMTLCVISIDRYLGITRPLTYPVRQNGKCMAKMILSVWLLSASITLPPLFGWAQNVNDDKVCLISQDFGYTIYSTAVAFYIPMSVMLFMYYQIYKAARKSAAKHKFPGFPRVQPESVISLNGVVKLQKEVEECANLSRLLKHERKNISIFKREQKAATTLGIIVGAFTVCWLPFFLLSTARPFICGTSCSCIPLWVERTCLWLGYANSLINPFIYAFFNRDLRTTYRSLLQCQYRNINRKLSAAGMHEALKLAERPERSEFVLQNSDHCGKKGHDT
The compound `c1cc2c(c(NC3=NCCN3)c1)CCCC2` displayed a Ki of 290 nM.

With `Cc1cc(C(C)(C)C)c(O)c(C)c1CC1=NCCN1` [SMR000059324], the affinity, expressed as Ki, was 23 nM. Against the preceding compound, the Ki is about 13-fold lower.

Take `O=C(NC1CCN(CCc2c[nH]c3ccccc23)CC1)c1ccccc1` [N-{1-[2-(1H-Indol-3-yl)-ethyl]-piperidin-4-yl}-benzamide(indoramin)]: the Ki was determined as 5 nM. This Ki is about 4.6-fold lower than that of the compound before.

Consider `COc1cc2nc(N3CCN(C(=O)c4ccco4)CC3)nc(N)c2cc1OC` [[3H]-Minipress], for which the inhibition constant (Ki) was determined as 0.1 nM.

Compound `CNCC(O)c1ccc(O)c(O)c1` (stereo unspecified) [EPINEPHRINE] came in with a Ki of 600 nM.

As to `COc1cccc(OC)c1OCCNCC1Oc2ccccc2OC1c1ccccc1` (stereo unspecified) [NSC_185453], the Ki is 1 nM.

Compound `c1ccc2c(c1)OCC(CN1CCCCC1)O2` (stereo unspecified) [Piperoxan] displayed a Ki of 360 nM.

`CC(COc1ccccc1)N(CCCl)Cc1ccccc1` (stereo unspecified) had a Ki of 0.9 nM.

`c1ccc(CC2=NCCN2)cc1` [Tolazoline] yielded an inhibition constant (Ki) of 2000 nM.

Turning to `c1ccc2c(CC3=NCCN3)cccc2c1` [Naphazoline], the Ki amounted to 43 nM.

Take `CNC[C@H](O)c1cccc(O)c1` [PHENYLEPHRINE]: the affinity, expressed as Ki, was 1400 nM.
